# Earlier results, collected in PMC10323144, “Garbage in, garbage out: how reliable training data improved a virtual screening approach against SARS-CoV-2 MPro” (Frontiers in Pharmacology, 2023).
# System: MPro
# Conditions: compiled from peer-reviewed sources (287 compounds) ref the 18 original articles; cited from earlier work
row,SMILES,Class (MPro activity class)
1,COc1ccc(CN=c2[nH]c(N3CCC[C@H]3CO)ncc2C(=O)NCc2ncccn2)cc1Cl,"0 (compounds with IC50 > 20 μM, percentage inhibition <80% at 20 µM or 50 μM, or percentage enzyme inhibition <50% at 10 µM were labelled as INACTIVE)"
2,COc1cc(OC)nc(O[C@H](C(=O)O)C(OC)(c2ccccc2)c2ccccc2)n1,"0 (compounds with IC50 > 20 μM, percentage inhibition <80% at 20 µM or 50 μM, or percentage enzyme inhibition <50% at 10 µM were labelled as INACTIVE)"
3,O=C(O)CNC(=O)c1ncc(-c2cccc(Cl)c2)cc1O,"0 (compounds with IC50 > 20 μM, percentage inhibition <80% at 20 µM or 50 μM, or percentage enzyme inhibition <50% at 10 µM were labelled as INACTIVE)"
4,"COc1cc(C2OCC3C(c4ccc(OC5OC(CO)C(O)C(O)C5O)c(OC)c4)OCC23)ccc1O (single isomer, unassigned; (+)) [(+)-Pinoresinol-4-O-β-D-glucopyraside]","0 (compounds with IC50 > 20 μM, percentage inhibition <80% at 20 µM or 50 μM, or percentage enzyme inhibition <50% at 10 µM were labelled as INACTIVE)"
5,"N#Cc1ccccc1-c1cc(-c2ccccn2)cn(-c2ccccc2)c1=O [1 (perampanel), perampanel]","0 (compounds with IC50 > 20 μM, percentage inhibition <80% at 20 µM or 50 μM, or percentage enzyme inhibition <50% at 10 µM were labelled as INACTIVE)"
6,"O=C(C=Cc1ccc(O)c(O)c1)OC1CC(OC(=O)C=Cc2ccc(O)c(O)c2)(C(=O)O)CC(O)C1O (stereo not shown) [1,3-Dicaffeoylquinic acid]","0 (compounds with IC50 > 20 μM, percentage inhibition <80% at 20 µM or 50 μM, or percentage enzyme inhibition <50% at 10 µM were labelled as INACTIVE)"
7,"O=c1cc(-c2ccccc2)oc2ccc(O)c(O)c12 [5,6-Dihydroxyflavone]","0 (compounds with IC50 > 20 μM, percentage inhibition <80% at 20 µM or 50 μM, or percentage enzyme inhibition <50% at 10 µM were labelled as INACTIVE)"
8,COc1cccc2[nH]c(C(=O)NC(CC(C)C)C(=O)NC(CC3CCNC3=O)C(=O)c3nc4ccccc4s3)cc12 (stereo not shown) [5h],1 (Compounds with IC50 < 10 µM or with a percentage of enzyme inhibition >50% at 10 µM were labelled as ACTIVE)
9,"O=c1cc(-c2ccccc2)oc2cc(O)c(O)cc12 [6,7-Dihydroxyflavone]","0 (compounds with IC50 > 20 μM, percentage inhibition <80% at 20 µM or 50 μM, or percentage enzyme inhibition <50% at 10 µM were labelled as INACTIVE)"
10,O=C(Oc1cncc(Cl)c1)c1cccc2[nH]ccc12 [10_GRL0496],1 (Compounds with IC50 < 10 µM or with a percentage of enzyme inhibition >50% at 10 µM were labelled as ACTIVE)
11,O=CC(CC1CCNC1=O)NC(=O)C(Cc1cccc(F)c1)NC(=O)c1cc2ccccc2[nH]1 (stereo not shown) [11b],1 (Compounds with IC50 < 10 µM or with a percentage of enzyme inhibition >50% at 10 µM were labelled as ACTIVE)
12,O=C(Nc1ccc(N(Cc2ccsc2)C(=O)Cn2nnc3ccccc32)cc1)C1CC1 [16e (ML300)],1 (Compounds with IC50 < 10 µM or with a percentage of enzyme inhibition >50% at 10 µM were labelled as ACTIVE)
13,CNc1ccc(N(Cc2ccsc2)C(=O)Cn2nnc3ccccc32)cc1 [16j],1 (Compounds with IC50 < 10 µM or with a percentage of enzyme inhibition >50% at 10 µM were labelled as ACTIVE)
14,O=C(Cn1nnc2ccccc21)N(Cc1ccsc1)c1ccc(-c2ccccc2)cc1 [17a],1 (Compounds with IC50 < 10 µM or with a percentage of enzyme inhibition >50% at 10 µM were labelled as ACTIVE)
15,COc1cc(Cl)cc(OC(=O)Nc2cccnc2)c1 [AGN-NEW-891393a6-1],1 (Compounds with IC50 < 10 µM or with a percentage of enzyme inhibition >50% at 10 µM were labelled as ACTIVE)
16,O=C1N(Cc2cccc(Cl)c2)CCN1c1nccc2[nH]ncc12 [ALP-POS-91609ae9-3],1 (Compounds with IC50 < 10 µM or with a percentage of enzyme inhibition >50% at 10 µM were labelled as ACTIVE)
17,CCC(=O)Nc1ccc(N(Cc2ccsc2)C(=O)Cn2nnc3ccccc32)cc1 [ALP-POS-c59291d4-2],1 (Compounds with IC50 < 10 µM or with a percentage of enzyme inhibition >50% at 10 µM were labelled as ACTIVE)
18,CC(C)(C)NC(=O)C(c1cccnc1)N(C(=O)c1ccco1)c1ccc(C(C)(C)C)cc1 (stereo not shown) [ALP-POS-c59291d4-6],1 (Compounds with IC50 < 10 µM or with a percentage of enzyme inhibition >50% at 10 µM were labelled as ACTIVE)
19,CN(C)c1ccc(N(Cc2ccsc2)C(=O)Cn2nnc3ccccc32)cc1 [ALP-POS-d2866bdf-1],1 (Compounds with IC50 < 10 µM or with a percentage of enzyme inhibition >50% at 10 µM were labelled as ACTIVE)
20,Nc1nc(NC2CC2)c2ncn([C@H]3C=C[C@@H](CO)C3)c2n1 [Abacavir],"0 (compounds with IC50 > 20 μM, percentage inhibition <80% at 20 µM or 50 μM, or percentage enzyme inhibition <50% at 10 µM were labelled as INACTIVE)"

row,SMILES,Class (MPro activity class)
1,C[C@@H]1O[C@@H](O[C@@H]2[C@@H](O)[C@H](OCCc3ccc(O)c(O)c3)O[C@H](CO)[C@H]2OC(=O)/C=C/c2ccc(O)c(O)c2)[C@H](O)[C@H](O)[C@H]1O [Acteoside],"0 (compounds with IC50 > 20 μM, percentage inhibition <80% at 20 µM or 50 μM, or percentage enzyme inhibition <50% at 10 µM were labelled as INACTIVE)"
2,Cn1c(=O)cc(N2CCC[C@@H](N)C2)n(Cc2ccccc2C#N)c1=O [Alogliptin],"0 (compounds with IC50 > 20 μM, percentage inhibition <80% at 20 µM or 50 μM, or percentage enzyme inhibition <50% at 10 µM were labelled as INACTIVE)"
3,CCOC(=O)[C@H]1O[C@@H]1C(=O)N[C@@H](CC(C)C)C(=O)NCCC(C)C [Aloxistatin],"0 (compounds with IC50 > 20 μM, percentage inhibition <80% at 20 µM or 50 μM, or percentage enzyme inhibition <50% at 10 µM were labelled as INACTIVE)"
4,Cc1c(-c2ccnn2C)cc(C(=O)NCc2ccc(S(C)(=O)=O)cn2)c(=O)n1-c1cccc(C(F)(F)F)c1 [Alvestat],"0 (compounds with IC50 > 20 μM, percentage inhibition <80% at 20 µM or 50 μM, or percentage enzyme inhibition <50% at 10 µM were labelled as INACTIVE)"
5,CC(C)CN(C[C@@H](O)[C@H](Cc1ccccc1)NC(=O)O[C@H]1CCOC1)S(=O)(=O)c1ccc(N)cc1 [Amprenavir],"0 (compounds with IC50 > 20 μM, percentage inhibition <80% at 20 µM or 50 μM, or percentage enzyme inhibition <50% at 10 µM were labelled as INACTIVE)"
6,CC(C)(C#N)c1cc(Cn2cncn2)cc(C(C)(C)C#N)c1 [Anastrozole],"0 (compounds with IC50 > 20 μM, percentage inhibition <80% at 20 µM or 50 μM, or percentage enzyme inhibition <50% at 10 µM were labelled as INACTIVE)"
7,C=C[C@@H]1C[C@]1(NC(=O)[C@@H]1C[C@@H](Oc2ncc(OC)c3ccc(Cl)cc23)CN1C(=O)[C@@H](NC(=O)OC(C)(C)C)C(C)(C)C)C(=O)NS(=O)(=O)C1CC1 [Asunaprevir],"0 (compounds with IC50 > 20 μM, percentage inhibition <80% at 20 µM or 50 μM, or percentage enzyme inhibition <50% at 10 µM were labelled as INACTIVE)"
8,COC(=O)NC(C(=O)NC(Cc1ccccc1)C(O)CN(Cc1ccc(-c2ccccn2)cc1)NC(=O)C(NC(=O)OC)C(C)(C)C)C(C)(C)C (stereo not shown) [Atanazavir],"0 (compounds with IC50 > 20 μM, percentage inhibition <80% at 20 µM or 50 μM, or percentage enzyme inhibition <50% at 10 µM were labelled as INACTIVE)"
9,CC(C)c1c(C(=O)Nc2ccccc2)c(-c2ccccc2)c(-c2ccc(F)cc2)n1CC[C@@H](O)C[C@@H](O)CC(=O)O [Atorvastatin],"0 (compounds with IC50 > 20 μM, percentage inhibition <80% at 20 µM or 50 μM, or percentage enzyme inhibition <50% at 10 µM were labelled as INACTIVE)"
10,NC(=O)[C@@H](CCC(F)(F)F)N(Cc1ccc(-c2ncon2)cc1F)S(=O)(=O)c1ccc(Cl)cc1 [Avagacestat],"0 (compounds with IC50 > 20 μM, percentage inhibition <80% at 20 µM or 50 μM, or percentage enzyme inhibition <50% at 10 µM were labelled as INACTIVE)"
11,O=C(c1cc(=O)[nH]c2ccccc12)N1CCN(Cc2ccccc2)CC1 [BEN-DND-7e92b6ca-10],1 (Compounds with IC50 < 10 µM or with a percentage of enzyme inhibition >50% at 10 µM were labelled as ACTIVE)
12,COc1cccc(N2CCN(C(=O)c3cc(=O)[nH]c4ccccc34)CC2)c1 [BEN-DND-7e92b6ca-12],1 (Compounds with IC50 < 10 µM or with a percentage of enzyme inhibition >50% at 10 µM were labelled as ACTIVE)
13,O=C(Cn1ccnc1[N+](=O)[O-])NCc1ccccc1 [BENZNIDAZOLE],"0 (compounds with IC50 > 20 μM, percentage inhibition <80% at 20 µM or 50 μM, or percentage enzyme inhibition <50% at 10 µM were labelled as INACTIVE)"
14,COc1ccc(NC(=O)c2ccc(C(=N)N(C)C)cc2)c(C(=O)Nc2ccc(Cl)cn2)c1 [BETRIXABAN],"0 (compounds with IC50 > 20 μM, percentage inhibition <80% at 20 µM or 50 μM, or percentage enzyme inhibition <50% at 10 µM were labelled as INACTIVE)"
15,Nc1cc(C(F)(F)F)c(-c2nc(N3CCOCC3)nc(N3CCOCC3)n2)cn1 [BIMIRALISIB],"0 (compounds with IC50 > 20 μM, percentage inhibition <80% at 20 µM or 50 μM, or percentage enzyme inhibition <50% at 10 µM were labelled as INACTIVE)"
16,O=c1cc(-c2ccccc2)oc2cc(O)c(O)c(O)c12 [Baicalein],1 (Compounds with IC50 < 10 µM or with a percentage of enzyme inhibition >50% at 10 µM were labelled as ACTIVE)
17,O=C(O)[C@H]1O[C@@H](Oc2cc3oc(-c4ccccc4)cc(=O)c3c(O)c2O)[C@H](O)[C@@H](O)[C@@H]1O [Baicalin],"0 (compounds with IC50 > 20 μM, percentage inhibition <80% at 20 µM or 50 μM, or percentage enzyme inhibition <50% at 10 µM were labelled as INACTIVE)"
18,CNC(=O)[C@H](Cc1ccccc1)NC(=O)[C@H](CC(C)C)[C@H](CSc1cccs1)C(=O)NO [Batimastat],"0 (compounds with IC50 > 20 μM, percentage inhibition <80% at 20 µM or 50 μM, or percentage enzyme inhibition <50% at 10 µM were labelled as INACTIVE)"
19,CC(O)(CS(=O)(=O)c1ccc(F)cc1)C(=O)Nc1ccc(C#N)c(C(F)(F)F)c1 (stereo not shown) [Bicalutamide],"0 (compounds with IC50 > 20 μM, percentage inhibition <80% at 20 µM or 50 μM, or percentage enzyme inhibition <50% at 10 µM were labelled as INACTIVE)"
20,CC1=C(C(=O)O)N2C(=O)[C@@H](NC(=O)[C@H](N)c3ccccc3)[C@H]2SC1 [CEPHALEXIN],"0 (compounds with IC50 > 20 μM, percentage inhibition <80% at 20 µM or 50 μM, or percentage enzyme inhibition <50% at 10 µM were labelled as INACTIVE)"
